Test results: patent publication US20230126893A1, “[(1,4,5-TRISUBSTITUTED-1H-PYRAZOL-3-YL)SULFANYL]ACETIC ACID DERIVATIVES, SALTS THEREOF, AND USE THEREOF AS ACTIVE HERBICIDAL INGREDIENTS” (BAYER AKTIENGESELLSCHAFT, priority 2020, published 2023)

Assays:
Type in all cases: in vivo
Poa annua [1] = experiment: Post-emergence herbicidal effect against POAAN; details: 1280 g/ha, visual assessment about 3 weeks after treatment, 100% = plants have died, 0% = like control plants
Method: (§1) [table] 2. Post-emergence herbicidal effect and crop plant compatibility Seeds of monocotyledonous and dicotyledonous weed and crop plants are laid out in sandy loam soil in wood-fibre pots, covered with soil and cultivated in a greenhouse under good growth conditions. 2 to 3 weeks after sowing, the test plants are treated at the one-leaf stage. The compounds of the invention, formulated in the form of wettable powders (WP) or as emulsion concentrates (EC), are then sprayed onto the green parts of the plants as aqueous suspension or emulsion at a water application rate equating to 600 to 800 l/ha with addition of 0.2% wetting agent. After the test plants have been left to stand in the greenhouse under optimal growth conditions for about 3 weeks, the action of the preparations is assessed visually in comparison to untreated controls (herbicidal action in percent (%): 100% activity=the plants have died, 0% activity=like control plants).

Alopecurus myosuroides [2] = experiment: Post-emergence herbicidal effect against ALOMY; details: 1280 g/ha, visual score after about 3 weeks, 100% = plants have died, 0% = like control plants
Method: as §1

Echinochloa crus-galli [3] = experiment: Pre-emergence herbicidal effect against ECHCG; details: 1280 g/ha, visual score after 3 weeks, 100% = plants have died, 0% = like control plants
From the text: (§2) 1. Pre-emergence herbicidal effect and crop plant compatibility Seeds of monocotyledonous and dicotyledonous weed plants and crop plants are laid out in sandy loam soil in wood-fibre pots and covered with soil. The compounds of the invention, formulated in the form of wettable powders (WP) or as emulsion concentrates (EC), are then applied to the surface of the covering soil as aqueous suspension or emulsion at a water application rate equating to 600 to 800 L/ha with addition of 0.2% wetting agent. After the treatment, the pots are placed in a greenhouse and kept under good growth conditions for the trial plants. The damage to the test plants is scored visually after a test period of 3 weeks by comparison with untreated controls (herbicidal activity in percent (%): 100% activity=the plants have died, 0% activity=like control plants). [table]

Alopecurus myosuroides [4] = experiment: Pre-emergence herbicidal effect against ALOMY; details: 1280 g/ha, visual score after 3 weeks, 100% = plants have died, 0% = like control plants
From the text: as §2

Veronica persica [5] = experiment: Post-emergence herbicidal effect against VERPE; details: 1280 g/ha, visual assessment about 3 weeks after treatment, 100% = plants have died, 0% = like control plants
Method: as §1

Poa annua [6] = experiment: Pre-emergence herbicidal effect against POAAN; details: 1280 g/ha, visual score after 3 weeks, 100% = plants have died, 0% = like control plants
From the text: as §2

Setaria viridis [7] = experiment: Post-emergence herbicidal effect against SETVI; details: 1280 g/ha, visual assessment about 3 weeks after treatment, 100% = plants have died, 0% = like control plants
Method: as §1

Stellaria media [8] = experiment: Pre-emergence herbicidal effect against STEME; details: 1280 g/ha, visual score after 3 weeks, 100% = plants have died, 0% = like control plants
From the text: as §2

[9] = test system: Tripleurospermum inodorum; experiment: Pre-emergence herbicidal effect against MATIN; details: 1280 g/ha, visual score after 3 weeks, 100% = plants have died, 0% = like control plants
From the text: as §2

[10] = test system: Tripleurospermum inodorum; experiment: Post-emergence herbicidal effect against MATIN; details: 1280 g/ha, visual assessment about 3 weeks after treatment, 100% = plants have died, 0% = like control plants
Method: as §1

Veronica persica [11] = experiment: Pre-emergence herbicidal effect against VERPE; details: 1280 g/ha, visual score after 3 weeks, 100% = plants have died, 0% = like control plants
From the text: as §2

Echinochloa crus-galli [12] = experiment: Post-emergence herbicidal effect against ECHCG; details: 1280 g/ha, visual score after about 3 weeks, 100% = plants have died, 0% = like control plants
Method: as §1

Setaria viridis [13] = experiment: Pre-emergence herbicidal effect against SETVI; details: 1280 g/ha, visual score after 3 weeks, 100% = plants have died, 0% = like control plants
From the text: as §2

Lolium rigidum = experiment: Pre-emergence herbicidal effect against LOLRI; details: 1280 g/ha, visual score after 3 weeks, 100% = plants have died, 0% = like control plants
From the text: as §2

Bassia scoparia = experiment: Post-emergence herbicidal effect against KCHSC; details: 1280 g/ha, visual assessment about 3 weeks after treatment, 100% = plants have died, 0% = like control plants
Method: as §1

Abutylon threophrasti = experiment: Post-emergence herbicidal effect against ABUTH; details: 1280 g/ha, visual assessment about 3 weeks after treatment, 100% = plants have died, 0% = like control plants
Method: as §1

Digitaria sanguinalis [14] = experiment: Pre-emergence herbicidal effect against DIGSA; details: 1280 g/ha, visual score after 3 weeks, 100% = plants have died, 0% = like control plants
From the text: as §2

Digitaria sanguinalis [15] = experiment: Post-emergence herbicidal effect against DIGSA; details: 1280 g/ha, visual score after about 3 weeks, 100% = plants have died, 0% = like control plants
Method: as §1

Stellaria media [16] = experiment: Post-emergence herbicidal effect against STEME; details: 1280 g/ha, visual assessment about 3 weeks after treatment, 100% = plants have died, 0% = like control plants
Method: as §1

Row | Structure (SMILES) | Post-emergence action against POAAN (Poa annua [1]) | Post-emergence action against ALOMY (Alopecurus myosuroides [2]) | Pre-emergence action against ECHCG (Echinochloa crus-galli [3]) | Pre-emergence action against ALOMY (Alopecurus myosuroides [4]) | Post-emergence action against VERPE (Veronica persica [5]) | Pre-emergence action against POAAN (Poa annua [6]) | Post-emergence action against SETVI (Setaria viridis [7]) | Pre-emergence action against STEME (Stellaria media [8]) | Pre-emergence action against MATIN [9] | Post-emergence action against MATIN [10] | Pre-emergence action against VERPE (Veronica persica [11]) | Post-emergence action against ECHCG (Echinochloa crus-galli [12]) | Pre-emergence action against SETVI (Setaria viridis [13]) | Pre-emergence action against LOLRI (Lolium rigidum) | Post-emergence action against KCHSC (Bassia scoparia) | Post-emergence action against ABUTH (Abutylon threophrasti) | Pre-emergence action against DIGSA (Digitaria sanguinalis [14]) | Post-emergence action against DIGSA (Digitaria sanguinalis [15]) | Post-emergence action against STEME (Stellaria media [16])
1 | O=C(O)CSc1nn(-c2ccccc2F)c(-c2cccnc2)c1Br [II-017] | 100% | 90% | 90% | 90% | 90% | 100% | 90% | 90% | 90% | 90% | 100% | 90% | 90% | – | – | – | – | – | –
2 | CCOC(=O)CSc1nn(-c2ccccc2F)c(-c2ccc(Cl)nc2)c1Br [II-012] | 100% | 90% | 90% | 90% | 90% | 100% | 90% | 100% | 100% | 90% | 100% | 90% | 90% | 100% | – | – | – | – | –
3 | O=C(O)CSc1nn(-c2cccc(F)c2F)c(-c2cncnc2)c1Br [III-005] | – | – | 90% | – | 90% | 100% | – | 90% | 90% | 90% | 90% | 90% | 90% | – | 90% | 90% | – | – | –
4 | O=C(O)CSc1nn(-c2ccccc2F)c(-c2cnccn2)c1Br [VI-002] | – | 90% | 90% | – | 90% | 100% | – | 90% | 90% | 90% | – | 90% | 90% | – | – | – | – | – | –
5 | CCOC(=O)CSc1nn(-c2ccccc2F)c(-c2ccc(Br)nc2)c1Br [II-015] | 90% | – | – | – | 90% | 90% | – | 100% | 100% | 90% | – | – | – | – | – | 90% | – | – | –
6 | COC(=O)CCNC(=O)CSc1nn(-c2ccccc2F)c(-c2cccnc2)c1Br [VII-006] | 100% | 90% | 90% | 90% | 90% | 100% | 90% | 90% | 90% | 90% | 90% | – | 90% | – | 90% | – | – | – | –
7 | CCOC(=O)CSc1nn(-c2ccc(Cl)cc2Cl)c(-c2ccc(F)c(F)c2)c1Br [Example I-026] | – | – | – | – | 90% | – | – | – | 100% | – | – | – | – | – | – | – | – | – | –
8 | CCOC(=O)CSc1nn(-c2ccc(F)cc2F)c(-c2ccc(F)c(F)c2)c1Br [Example I-027] | 90% | 100% | – | – | 100% | 100% | – | 100% | 100% | – | 90% | – | 100% | 90% | 90% | – | 100% | 100% | 90%
9 | COC(=O)CN(C)C(=O)CSc1nn(-c2ccccc2F)c(-c2cccnc2)c1Br [VII-008] | – | – | – | – | 90% | 90% | – | – | – | – | – | – | – | – | 90% | 90% | – | – | –
10 | O=C(O)CSc1nn(-c2ccccc2F)c(-c2ccc(Cl)nc2)c1Br [II-016] | 100% | 100% | 100% | 90% | 100% | 100% | – | 100% | 100% | 100% | 90% | 100% | 100% | 100% | – | – | 100% | 100% | 100%
11 | CCOC(=O)CNC(=O)CSc1nn(-c2ccccc2F)c(-c2ccc(F)c(F)c2)c1Br [VII-003] | 100% | 100% | 100% | – | 90% | 100% | – | 100% | 100% | 90% | 100% | – | 100% | 100% | – | – | – | – | 90%
12 | COC(=O)CNC(=O)CSc1nn(-c2ccccc2F)c(-c2ccc(F)c(F)c2)c1[N+](=O)[O-] [VII-004] | – | – | – | – | – | 100% | – | 100% | – | – | – | – | – | – | – | – | – | – | –
13 | CCOC(=O)CSc1nn(-c2ccccc2OC)c(-c2ccc(F)cc2)c1Br [Example I-023] | – | – | – | 90% | 90% | 100% | – | 100% | 100% | – | 100% | – | 90% | – | – | – | 100% | – | –
14 | COC(=O)CN(C)C(=O)CSc1nn(-c2ccccc2F)c(-c2ccc(F)c(F)c2)c1Br [VII-011] | – | 90% | – | 90% | 90% | 100% | – | – | 90% | – | 90% | – | – | – | 90% | – | – | – | –
15 | COC(=O)CNC(=O)CSc1nn(-c2ccccc2F)c(-c2ccccc2)c1Br [VII-005] | 100% | 100% | 90% | 90% | 100% | 100% | 100% | 100% | 100% | 100% | 100% | 90% | 90% | 90% | 100% | 100% | – | – | 90%
